From US7550451B2, “Progesterone receptor modulators with increased antigonadotropic activity for female birth control and hormone replacement therapy” (Bayer Schering Pharma AG, priority 2002, dated 2009)

Assays:
adult female rats = test: Nidation-inhibiting test (antifertile effects in the perinidation phase); type: in vivo; details: day 5-7 of pregnancy, rat
Protocol: The determination of the progesterone-antagonistic activities was carried out on adult female rats in the nidation-inhibiting test. The principle of the test is described as follows: progesterone preserves pregnancy in all stages. An early-abortive action can accordingly be expected from competitive progesterone antagonists. Female rats (Schoe strain: WIST Tierzucht GmbH Schönwalde) with a weight of 180-200 g were subjected daily to a cycle control and paired up in proestrus. The beginning of pregnancy was determined by detecting sperm in the vaginal smear on the same day (=day 1 of pregnancy=d1 p.c.). From the 5th-7th day of pregnancy, the test substances were injected subcutaneously daily. On the 9th day, vaginal smears were taken, then the animals were autopsied and the uteri were prepared. The degeneration of implants and pathological, hemorrhagic and otherwise abnormal nidation sites were counted as abortions and are shown in Table 2.

Progesterone receptor = target: T1, Progesterone receptor (Oryctolagus cuniculus, UniProt P06186); test: Receptor binding affinity, progesterone receptor (competitive binding, 3H-ORG 2058); details: Progesterone = 100%; uterus cytosol of estradiol-primed rabbit
T1 construct: Uterus cytosol of the estradiol-primed rabbit; from tissue; host or cells: uterus cytosol of estradiol-primed rabbit
T1 sequence (P06186 1-930): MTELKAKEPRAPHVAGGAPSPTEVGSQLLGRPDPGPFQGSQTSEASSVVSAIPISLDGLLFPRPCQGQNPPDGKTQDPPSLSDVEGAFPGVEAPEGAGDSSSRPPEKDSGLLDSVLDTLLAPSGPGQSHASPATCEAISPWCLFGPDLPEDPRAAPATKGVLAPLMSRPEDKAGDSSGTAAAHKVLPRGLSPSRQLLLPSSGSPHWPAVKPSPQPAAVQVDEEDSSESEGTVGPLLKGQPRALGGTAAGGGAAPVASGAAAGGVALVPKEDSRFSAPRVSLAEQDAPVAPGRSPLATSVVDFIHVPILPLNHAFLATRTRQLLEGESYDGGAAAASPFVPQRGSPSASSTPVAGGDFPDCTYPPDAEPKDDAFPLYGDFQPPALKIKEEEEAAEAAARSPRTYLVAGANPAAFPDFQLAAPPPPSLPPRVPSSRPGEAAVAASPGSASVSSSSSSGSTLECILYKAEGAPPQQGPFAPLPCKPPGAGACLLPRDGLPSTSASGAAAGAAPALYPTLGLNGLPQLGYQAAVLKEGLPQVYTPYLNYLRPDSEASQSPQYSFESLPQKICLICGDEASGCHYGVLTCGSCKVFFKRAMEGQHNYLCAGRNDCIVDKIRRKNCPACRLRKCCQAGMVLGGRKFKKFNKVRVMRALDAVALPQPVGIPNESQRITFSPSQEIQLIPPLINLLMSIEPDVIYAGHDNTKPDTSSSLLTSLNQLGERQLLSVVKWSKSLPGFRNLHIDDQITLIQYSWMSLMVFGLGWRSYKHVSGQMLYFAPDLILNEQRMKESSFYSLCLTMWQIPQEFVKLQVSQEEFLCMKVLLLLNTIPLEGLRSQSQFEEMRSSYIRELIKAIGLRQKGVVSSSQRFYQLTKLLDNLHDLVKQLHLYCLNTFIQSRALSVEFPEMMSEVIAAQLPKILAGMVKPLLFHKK
Protocol: The receptor binding affinity was determined by competitive binding of a specifically binding ^3H-labeled hormone (tracer) and the compound to be tested on receptors in the cytosol from animal target organs. In this case, receptor saturation and reaction equilibrium were sought.
The tracers and increasing concentrations of the compound to be tested (competitor) were co-incubated with the receptor-containing cytosol fraction at 0-4° C. over 18 hours. After separation of the unbonded tracer with carbon-dextran suspension, the receptor-bonded tracer portion was measured for each concentration, and the IC50 was determined from the concentration sequence. As a quotient of the IC50 values of the reference substance and the compound to be tested (×100%), the relative molar binding affinity (RBA) was calculated (RBA of the reference substance=100%).
Uterus cytosol of the estradiol-primed rabbit; homogenized in TED buffer (20 mmol of Tris/HCl, pH 7.4; 1 mmol of ethylenediamine tetraacetate, 2 mmol of dithiothreitol) with 250 mmol of saccharose; stored at −30° C. Tracer: ^3H-ORG 2058, 5 nmol; reference substance: progesterone.

| Compound | Rate of Animals with Complete Inhibition of Nidation (adult female rats; 1.0 mg/animal/day s.c.) | Rate of Animals with Complete Inhibition of Nidation (adult female rats; 3.0 mg/animal/day s.c.) | Rate of Animals with Complete Inhibition of Nidation (adult female rats; 10.0 mg/animal/day s.c.) | PR relative molar binding affinity (RBA) (Progesterone receptor) [%] | Rate of Animals with Complete Inhibition of Nidation (adult female rats; 0.03 mg/animal/day s.c.) | Rate of Animals with Complete Inhibition of Nidation (adult female rats; 0.1 mg/animal/day s.c.) | Rate of Animals with Complete Inhibition of Nidation (adult female rats; 0.3 mg/animal/day s.c.) |
| --- | --- | --- | --- | --- | --- | --- | --- |
| C[C@]12C[C@H](c3ccc(/C=N/O)cc3)C3=C4CCC(=O)C=C4CC[C@H]3[C@@H]1CC[C@@H]2O [Example 1, 4-(17β-Hydroxy-3-oxoestra-4,9-dien-11β-yl)benzaldehyde-1(E)-oxime] | 0/5 | 0/5 | 5/5 | 26 | – | – | – |
| CC1(O)CCC2C3CCC4=CC(=O)CCC4=C3C(c3ccc(C=NO)cc3)CC21C (stereo not drawn) [Example 2, 4-(17β-Hydroxy-17α-methyl-3-oxoestra-4,9-dien-11β-yl)benzaldehyde-1(E)-oxime] | 5/5 | – | – | 95 | 0/4 | 0/5 | 2/5 |
